The record followed here is US6150385A, “1,3,4-thiadiazoles useful for the treatment of CMV infections” (Pharmacia & Upjohn Company, priority 1999, dated 2000).

For the experiment, the target named is T1, HCMV polymerase (Human cytomegalovirus, UniProt P08546).
T1 construct: made in house; host or cells: SF-9 insect cells infected with recombinant baculovirus
T1 sequence (P08546 whole entry): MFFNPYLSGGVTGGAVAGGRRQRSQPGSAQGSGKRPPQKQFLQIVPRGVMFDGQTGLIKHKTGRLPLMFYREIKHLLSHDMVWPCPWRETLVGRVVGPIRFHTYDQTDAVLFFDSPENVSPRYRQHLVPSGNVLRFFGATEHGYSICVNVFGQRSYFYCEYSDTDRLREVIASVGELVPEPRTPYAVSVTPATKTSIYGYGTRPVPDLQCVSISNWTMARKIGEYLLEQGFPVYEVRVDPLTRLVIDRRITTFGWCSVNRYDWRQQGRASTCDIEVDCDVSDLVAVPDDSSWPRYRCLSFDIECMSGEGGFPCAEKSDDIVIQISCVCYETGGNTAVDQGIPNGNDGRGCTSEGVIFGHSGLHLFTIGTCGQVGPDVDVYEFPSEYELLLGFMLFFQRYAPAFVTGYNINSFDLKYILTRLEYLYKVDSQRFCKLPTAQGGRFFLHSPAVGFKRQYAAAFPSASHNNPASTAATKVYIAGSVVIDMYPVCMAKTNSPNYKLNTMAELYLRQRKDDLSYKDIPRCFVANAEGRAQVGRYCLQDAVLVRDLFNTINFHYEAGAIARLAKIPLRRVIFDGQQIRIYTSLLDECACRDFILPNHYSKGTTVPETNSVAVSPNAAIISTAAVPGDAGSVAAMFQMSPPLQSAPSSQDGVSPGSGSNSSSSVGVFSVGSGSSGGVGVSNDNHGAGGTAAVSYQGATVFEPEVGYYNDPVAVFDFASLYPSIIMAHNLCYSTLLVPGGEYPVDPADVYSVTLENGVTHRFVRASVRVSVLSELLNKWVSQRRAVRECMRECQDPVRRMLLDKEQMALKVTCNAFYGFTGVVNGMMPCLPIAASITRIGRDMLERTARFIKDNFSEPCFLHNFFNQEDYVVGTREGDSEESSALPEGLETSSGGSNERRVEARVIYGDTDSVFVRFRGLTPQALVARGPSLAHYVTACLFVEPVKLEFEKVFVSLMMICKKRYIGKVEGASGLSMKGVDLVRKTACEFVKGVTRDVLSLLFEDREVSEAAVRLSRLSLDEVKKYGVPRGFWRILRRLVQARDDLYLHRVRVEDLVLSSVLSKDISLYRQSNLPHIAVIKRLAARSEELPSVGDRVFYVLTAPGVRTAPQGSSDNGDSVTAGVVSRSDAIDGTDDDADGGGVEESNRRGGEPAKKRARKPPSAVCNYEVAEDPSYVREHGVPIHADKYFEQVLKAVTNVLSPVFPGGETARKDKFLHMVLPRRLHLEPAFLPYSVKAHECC
The experiment can be described thus: HCMV polymerase assay (scintillation proximity assay). In kind it is biochemical. Particulars: percentage of inhibition at 25 μM concentration in CMV polymerase assay. In short, it runs like this:
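Values are percent inhibition at 25 μM, measured by scintillation proximity after capture of biotinylated poly(dA)-oligo(dT) (6 nM) extended with 90 nM 3H-dTTP. Recombinant SF-9-derived enzyme reacted 30 min at 25 or 37 °C in HEPES pH 7.5/KCl/MgCl2/BSA buffer, ±2 mM CHAPS, before EDTA termination.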
As a reminder, the inhibition is the change of the read-out against control, counted positive when it falls. Read a high inhibition as strong suppression. The compound `O=C(Nc1nnc(NCCc2cccs2)s1)c1ccc(I)cc1` [compound 430, 4-iodo-N-(5-{[2-(2-thienyl)ethyl]amino}-1,3,4-thiadiazol-2-yl)benzamide] yielded an inhibition at 25 µM of 23.1%. `CCOc1ccc2ccccc2c1C(=O)Nc1nnc(NCC2CCCCC2)s1` [compound 431, N-{5-[(cyclohexylmethyl)amino]-1,3,4-thiadiazol-2-yl}-2-ethoxy-1-naphthamide] yielded an inhibition at 25 µM of 23.1%. The compound `O=C(/C=C/c1ccccc1)Nc1nnc(NCCN2CCCC2)s1` [compound 432, (E)-3-phenyl-N-(5-{[2-(1-pyrrolidinyl)ethyl]amino}-1,3,4-thiadiazol-2-yl)-2-propenamide] came in with an inhibition at 25 µM of 23%. Still for that read-out and setting: the same measure for `O=C(Nc1nnc(NCC2CCCCC2)s1)c1ccc(F)cc1F` [compound 433, N-{5-[(cyclohexylmethyl)amino]-1,3,4-thiadiazol-2-yl}-2,4-difluorobenzamide]: 22.9%; for `O=C(Nc1nnc(NCCNc2ccccc2)s1)c1ccc(Br)cc1` [compound 434, N-{5-[(2-anilioethyl)amino]-1,3,4-thiadiazol-2-yl}-4-bromobenzamide]: 22.8%. In turn, `CC(C)c1cc(C(C)C)c(C(=O)Nc2nnc(NCCC#N)s2)c(C(C)C)c1` [compound 435, N-{5-[(2-cyanoethyl)amino]-1,3,4-thiadiazol-2-yl}-2,4,6-triisopropylbenzamide] displayed an inhibition at 25 µM of 22.8%. `COc1ccc(CNc2nnc(NC(=O)c3cccc([N+](=O)[O-])c3)s2)cc1OC` [compound 436, N-{5-[(3,4-dimethoxybenzyl)amino]-1,3,4-thiadiazol-2-yl}-3-nitrobenzamide] gave an inhibition at 25 µM of 22.8%. As for `O=C(Nc1nnc(NCCc2ccccc2)s1)c1cc(F)cc(F)c1` [compound 437, 3,5-difluoro-N-[5-(phenethylamino)-1,3,4-thiadiazol-2-yl]benzamide], the inhibition at 25 µM is 22.7%. Still for that read-out and setting: the same measure for `O=C(Nc1nnc(NCCNc2ccccc2)s1)c1c(Cl)cccc1Cl` [compound 438, N-{5-[(2-anilinoethyl)amino]-1,3,4-thiadiazol-2-yl}-2,6-dichlorobenzamide]: 22.6%. `O=C(/C=C/c1ccccc1Cl)Nc1nnc(NCC2CCCCC2)s1` [compound 439, (E)-3-(2-chlorophenyl)-N-{5-[(cyclohexylmethyl)amino]-1,3,4-thiadiazol-2-yl}-2-propenamide]: at 25 µM the inhibition was 22.5%.

`CC(C)c1cc(C(C)C)c(C(=O)Nc2nnc(NC[C@@H]3CCC4CC3C4(C)C)s2)c(C(C)C)c1` (stereo partly drawn) [compound 440, N-[5-({[(2R)-6,6-dimethylbicyclo[3.1.1]hept-2-yl]methyl}amino)-1,3,4-thiadiazol-2-yl]-2,4,6-triisopropylbenzamide]: the inhibition at 25 µM was 22.5%. The same measure, in the same setting: the same measure for `CCCCCCCCCCCNc1nnc(NC(=O)c2c(C(C)C)cc(C(C)C)cc2C(C)C)s1` [compound 441, 2,4,6-triisopropyl-N-[5-(undecylamino)-1,3,4-thiadiazol-2-yl]benzamide]: 22.5%. The same measure, in the same setting: the same measure for `CC(C)c1cc(C(C)C)c(C(=O)Nc2nnc(NCc3ccco3)s2)c(C(C)C)c1` [compound 442, N-{5-[(2-furylmethyl)amino]-1,3,4-thiadiazol-2-yl}-2,4,6-triisopropylbenzamide]: 22.3%. `O=C(/C=C/c1ccccc1Cl)Nc1nnc(NCc2cccc3ccccc23)s1` [compound 443, (E)-3-(2-chlorophenyl)-N-{5-[(1-naphthylmethyl)amino]-1,3,4-thiadiazol-2-yl]-2propenamide] showed an inhibition at 25 µM of 22.1%. Take `CC(C)c1cc(C(C)C)c(C(=O)Nc2nnc(NCCN(C)C)s2)c(C(C)C)c1` [compound 444, N-(5-{[2-(dimethylamino)ethyl]amino}-1,3,4-thiadiazol-2-yl)-2,4,6-triisopropylbenzamide]: at 25 µM the inhibition was 21.9%. Same read-out and setting: the same measure for `O=C(Nc1nnc(NCCc2cccs2)s1)c1ccc(F)cc1F` [compound 445]: 21.9%. `NS(=O)(=O)c1ccc(CCNc2nnc(NC(=O)c3ccc(C(F)(F)F)cc3)s2)cc1` [compound 446, N-(5-{[4-(aminosulfonyl)phenethyl]amino}-1,3,4-thiadiazol-2-yl)-4-(trifluoromethyl)benzamide] gave an inhibition at 25 µM of 21.8%. In turn, `CCSCCNc1nnc(NC(=O)c2ccc(Cl)c(Cl)c2)s1` [compound 447, 3,4-dichloro-N-(5-{[2-(ethylsulfanyl)ethyl]amino]-1,3,4-thiadiazol-2-yl)benzamide] came in with an inhibition at 25 µM of 21.6%. In the case of `O=C(Nc1nnc(NCCc2c[nH]cn2)s1)c1c(Cl)cccc1Cl` [compound 448, 2,6-dichloro-N-(5-{[2-(1H-imidazol-4-yl)ethyl]amino}-1,3,4-thiadiazol-2-yl)benzamide], at 25 µM the inhibition was 21.6%. With `Cc1ccc(C(=O)Nc2nnc(NCC3CCCCC3)s2)cc1` [compound 449, N-{5-[(cyclohexylmethyl)amino]-1,3,4-thiadiazol-2-yl}-4-methylbenzamide], the inhibition at 25 µM is 21.5%. `CCOc1ccc2ccccc2c1C(=O)Nc1nnc(NCC2CCCO2)s1` (stereo not drawn) [compound 450, 2-ethoxy-N-{5-[(tetrahydro-2-furanylmethyl)amino]-1,3,4-thiadiazol-2-yl}-1-naphthamide] gave an inhibition at 25 µM of 21.4%. The compound `O=C(Nc1nnc(NCc2ccc(F)cc2)s1)c1cc(F)cc(F)c1` [compound 451, 3,5-difluoro-N-{5-[(4-fluorobenzyl)amino]-1,3,4-thiadiazol-2-yl}benzamide] gave an inhibition at 25 µM of 21.4%.

Compound `COc1ccccc1C(=O)Nc1nnc(NCc2ccc(Cl)c(Cl)c2)s1` [compound 452, N-{5-[(3,4-dichlorobenzyl)amino]-1,3,4-thiadiazol-2-yl}-2-methoxybenzamide] displayed an inhibition at 25 µM of 21.3%. On to `O=C(Nc1nnc(NCCN2CCOCC2)s1)c1cc2ccccc2s1` [compound 453, N-{5-[(2-morpholinoethyl)amino]-1,3,4-thiadiazol-2-yl}-1-benzothiophene-2-carboxamide], for which the inhibition at 25 µM came to 21.2%.

For `O=C(Nc1nnc(NCCc2c[nH]cn2)s1)c1ccc(I)cc1` [compound 454, N-(5-{[2-(1H-imidazol-4-yl)ethyl]amino}-1,3,4-thiadiazol-2-yl)-4-iodobenzamide], the inhibition at 25 µM worked out at 21.2%. The compound `O=C(Nc1nnc(NC2CCN(Cc3ccccc3)CC2)s1)c1ccc(Br)cc1` [compound 455, N-{5-[(1-benzyl-4-piperidinyl)amino]-1,3,4-thiadiazol-2-yl}-4-bromobenzamide] returned an inhibition at 25 µM of 20.8%. The compound `O=C(Nc1nnc(NC2CCN(Cc3ccccc3)CC2)s1)c1ccc([N+](=O)[O-])o1` [compound 456, N-{5-[(1-benzyl-4-piperidinyl)amino]-1,3,4-thiadiazol-2-yl}-5-nitro-2-furamide] showed an inhibition at 25 µM of 20.8%. `Cc1ccc(C(=O)Nc2nnc(NCc3cccc4ccccc34)s2)cc1` [compound 457, 4-methyl-N-{5-[(1-naphthylmethyl)amino]-1,3,4-thiadiazol-2-yl}benzamide] came in with an inhibition at 25 µM of 20.7%. Compound `O=C(Nc1nnc(NCCc2c[nH]c3ccccc23)s1)c1cc(F)cc(F)c1` [compound 458, 3,5-difluoro-N-(5-{[2-(1H-indol-3-yl)ethyl]amino}-1,3,4-thiadiazol-2-yl)benzamide] had an inhibition at 25 µM of 20.7%. Same read-out and setting: the same measure for `O=C(Nc1nnc(NCc2ccc3c(c2)OCO3)s1)c1ccc(I)cc1` [compound 459, N-{5-[(1,3-benzodioxol-5-ylmethyl)amino]-1,3,4-thiadiazol-2-yl}-4-iodobenzamide]: 20.7%. With `O=C(Nc1nnc(NC2CCN(Cc3ccccc3)CC2)s1)c1ccc(S(=O)(=O)F)cc1` [compound 460, 4-[({5-[(1-benzyl-4-piperidinyl)amino]-1,3,4-thiadiazol-2-yl}amino)carbonyl]benzenesulfonyl fluoride], the “% Inhib” value is 20.7%. The compound `CCCCC(CC)CNc1nnc(NC(=O)c2ccc(Cl)c(Cl)c2)s1` (stereo not drawn) [compound 461, 3,4-dichloro-N-{5-[(2-ethylhexyl)amino]-1,3,4-thiadiazol-2-yl}benzamide] yielded an inhibition at 25 µM of 20.6%. On the same count and under the same terms, the same measure for `O=C(Nc1nnc(NCc2ccc(Cl)c(Cl)c2)s1)c1cccc([N+](=O)[O-])c1` [compound 462, N-{5-[(3,4-dichlorobenzyl)amino]-1,3,4-thiadiazol-2-yl}-3-nitrobenzamide]: 20.5%; for `CCOc1ccc2ccccc2c1C(=O)Nc1nnc(NCCNC(C)=O)s1` [compound 463, N-(5-{[2-(acetylamino)ethyl]amino}-1,3,4-thiadiazol-2-yl)-2-ethoxy-1-naphthamide]: 20.3%. As to `N#Cc1ccc(C(=O)Nc2nnc(NCCN3CCOCC3)s2)cc1` [compound 464, 4-cyano-N-{5-[(2-morpholinoethyl)amino]-1,3,4-thiadiazol-2-yl}benzamide], 25 µM produced 20.3% inhibition. As to `O=C(/C=C/c1ccccc1)Nc1nnc(NC2CC2)s1` [compound 465, (E)-N-[5-(cyclopropylamino)-1,3,4-thiadiazol-2-yl]-3-phenyl-2-propenamide], at 25 µM the inhibition was 20.2%. Same read-out and setting: the same measure for `CCSCCNc1nnc(NC(=O)c2cc3ccccc3s2)s1` [compound 466, N-(5-{[2-(ethylsulfanyl)ethyl]amino}-1,3,4-thiadiazol-2-yl)-1-benzothiophene-2-carboxamide]: 20.1%; for `CN1CCN(CCCNc2nnc(NC(=O)c3ccc(I)cc3)s2)CC1` [compound 467]: 20.1%; for `O=C(Nc1nnc(NC2CCCc3ccccc32)s1)c1cc(F)cc(F)c1` (stereo not drawn) [compound 468, 3,5-difluoro-N-[5-(1,2,3,4-tetrahydro-1-naphthalenylamino)-1,3,4-thiadiazol-2-yl]benzamide]: 20.1%.
